US12440571B2, “Immune agonists” (SHENZHEN UNIVERSITY, priority 2020, dated 2025)

Experiments:
Assay type in all cases: cell-based
TLR7 = molecular target: T1, TLR7 (Homo sapiens, UniProt Q9NYK1); assay: Detection of TLR7 activation (HEK-Blue Detection), SEAP reporter; details: HEK-Blue hTLR7 cells, 6-16 hrs, absorbance 650 nm; read-out: TLR7(EC50/μM)
T1 construct: host or cells: HEK-Blue hTLR7 cells (HEK293-derived SEAP reporter line)
T1 sequence (Q9NYK1 27-1049): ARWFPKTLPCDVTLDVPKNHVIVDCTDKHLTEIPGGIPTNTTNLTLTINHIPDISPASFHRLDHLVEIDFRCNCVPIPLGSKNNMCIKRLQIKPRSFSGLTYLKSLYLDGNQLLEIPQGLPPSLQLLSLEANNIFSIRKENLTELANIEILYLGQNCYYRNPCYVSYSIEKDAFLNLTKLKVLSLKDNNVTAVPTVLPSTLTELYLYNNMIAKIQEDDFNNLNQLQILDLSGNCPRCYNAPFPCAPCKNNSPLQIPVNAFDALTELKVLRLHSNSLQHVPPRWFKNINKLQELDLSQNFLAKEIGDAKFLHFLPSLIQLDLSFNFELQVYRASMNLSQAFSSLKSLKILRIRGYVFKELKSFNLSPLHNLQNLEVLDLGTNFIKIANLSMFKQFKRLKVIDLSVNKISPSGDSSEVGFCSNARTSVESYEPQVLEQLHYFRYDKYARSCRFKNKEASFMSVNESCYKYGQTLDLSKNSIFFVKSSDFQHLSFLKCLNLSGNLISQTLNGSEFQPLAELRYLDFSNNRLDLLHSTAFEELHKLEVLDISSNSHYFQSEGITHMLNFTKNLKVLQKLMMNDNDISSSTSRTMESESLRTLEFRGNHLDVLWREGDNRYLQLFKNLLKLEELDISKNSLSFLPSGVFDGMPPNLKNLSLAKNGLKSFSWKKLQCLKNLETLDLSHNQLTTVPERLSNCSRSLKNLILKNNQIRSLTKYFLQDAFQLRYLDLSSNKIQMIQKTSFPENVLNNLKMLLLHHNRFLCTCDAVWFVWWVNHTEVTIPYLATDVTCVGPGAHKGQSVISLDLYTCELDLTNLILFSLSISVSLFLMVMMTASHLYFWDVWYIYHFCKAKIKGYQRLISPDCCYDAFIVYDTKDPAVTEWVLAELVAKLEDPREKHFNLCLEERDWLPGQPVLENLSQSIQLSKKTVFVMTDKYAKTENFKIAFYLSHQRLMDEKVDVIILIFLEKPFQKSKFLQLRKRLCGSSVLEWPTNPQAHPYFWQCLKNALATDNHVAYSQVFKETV
Protocol: HEK-Blue™hTLR7 cells (purchased from InvivoGen) in a logarithmic growth phase were taken, with a growth medium (Gibco, C11995500BT, Invivo Gen, ant-nr) discarded. The cells were gently rinsed twice by an appropriate amount of 37° C. PBS (Hyclone, SH30256.01), a rinsed PBS was discarded. Thereafter, the cells were added with 2-5 mL of 37° C. PBS, incubated for 1 to 2 minutes, and then scraped by a cell scraper and gently pipetted to be dispersed into a single cell suspension. A hemocytometer was adopted to count the cells and a cell concentration was calculated. After that, a HEK-Blue™ Detection solution (purchased from Invivo Gen) was adopted to adjust the cell concentration of the cell suspension to 2.5×10^4/180 μL per well for cell plating on a 96-well cell culture plate. The HEK-Blue™hTLR7 cells were stimulated according to the designed series of GY compound or drug concentrations (0.01 μM, 0.1 μM, 1 μM, 5 μM, 15 μM, and 30 μM), with 3 replicate wells for each concentration, and were incubated at 37° C., 5% carbon dioxide for 6-16 hrs. After the incubation, the absorbance value was read at 650 nm with a full-wavelength microplate reader (BioTek-Epoch), as listed in Table 2.
Relative induction=(average OD value of experimental group−average OD value of negative control group)/average OD value of negative control group.
Specific details for the above method may be referred to https: • //www.invivogen.com/hek-blue-htlr7; https://www.invivogen.com/sites/default/files/invivogen/products/files/hek_blue_htlr7_tds.pdf.

[1] = system: murine colon cancer CT-26 cells; assay: CCK8 growth inhibition, CT26; details: Mus musculus, CCK8 method, read-out: IC50 of inhibitory activity on tumor cell growth, CT26
[2] = system: Murine breast cancer 4T1 cells; assay: CCK8 growth inhibition, 4T1; details: Mus musculus, CCK8 method, 24 hrs (or 36, 72 hrs), read-out: IC50 of inhibitory activity on tumor cell growth, 4T1
Protocol: Murine breast cancer 4T1 cells (Kailian Biotech, KG338) in a logarithmic growth phase were selected and washed with PBS, digested with 0.25% trypsin (including EDTA), stopped digestion with a DMEM complete medium, then centrifuged, and resuspended to form a suspension of 4T1 single cells. Cells were counted using a hemocytometer and a cell concentration was calculated. A DMEM complete medium was used to adjust the cell suspension to a target concentration, and thereafter, the cells were plated on a 96-well cell culture plate according to 4×10^3/100 μL per well. After adherering to the wall, the 4T1 cells were stimulated according to the designed concentration gradients of the series of GY compounds or drugs, with each concentration being provided with 3 replicate holes. The 96-well cell culture plate with 4T1 cells seeded and dosing was placed in the cell incubator, and incubated at 37° C., 5% carbon dioxide for 24 hrs (or 36, 72 hrs). After the incubation time was over, 10 μL of CCK8 reagent was added to each well and incubated for 1-2 hrs at 37° C. A full-wavelength microplate reader was adopted to test an OD value at 450 nm wavelength.
CCK8 calculation formula is as follows: • Cell survival rate (100%)=[…]/(Ac−Ab)×100% • As: Absorbance of wells containing cells, CCK8 solution, and drug solution • Ac: Absorbance of wells containing cells and CCK8 solution, and no drug solution • Ab: Absorbance of wells containing CCK8 solution, no cells, and no drug solution
Cell growth inhibition rate (%)=1−((OD value of experimental group−OD value of blank group)/(OD value of control group−OD value of blank group)×100%).

EC50 (TLR7) [µM] | IC50 [1] [µM] | IC50 [2] [µM] | Compound
2.65 | 25 | 1.45 | CCCCOc1nc(N)c2nc(O)n(Cc3cn(CCOCCOCCOCCNC(=S)N4CCCC(n5nc(-c6ccc(Oc7ccccc7)cc6)c6c(N)ncnc65)C4)nn3)c2n1 (stereo not drawn) [GY112]
1.06 | 16.9 | 17.3 | CCCCOc1nc(N)c2nc(O)n(Cc3cn(CCOCCOCCOCCNC(=S)Nc4cc(Nc5nccc(-c6cn(C)c7ccccc67)n5)c(OC)cc4N(C)CCN(C)C)nn3)c2n1 [GY127]
3.86 | 6.15 | 0.78 | CCCCOc1nc(N)c2nc(O)n(Cc3cn(CCCCN4CCN(CCCNC(=S)N5CCCC(n6nc(-c7ccc(Oc8ccccc8)cc7)c7c(N)ncnc76)C5)CC4)nn3)c2n1 (stereo not drawn) [GY161]
